Like-named read-outs stand apart in the source and are kept apart here.
What was measured:
HeLa cells = test: Cellular growth inhibition assay (CellTiter-Glo), HeLa cells; assay type: cell-based; conditions: three days compound treatment, CellTiter-Glo 2.0, read-out: CTG HELA GI50
Procedure, shortened: (§1)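 HEK293 or HeLa cells seeded at 500 cells/well in DMEM with 10% FBS, treated after 24 h with titrated compound for three days at 37 °C, 5% CO2. CellTiter-Glo 2.0 luminescence read on Day 0 and Day 3, normalized to DMSO, four-parameter fit giving GI50.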

HEK293 cells = test: Cellular growth inhibition assay (CellTiter-Glo), HEK293 cells; assay type: cell-based; conditions: three days compound treatment, CellTiter-Glo 2.0, read-out: CTG HEK293 GI50
Procedure, shortened: as §1

KRAS G12C = target: T1, KRAS G12C (Homo sapiens, UniProt P01116, G12C); test: KRAS G12C nucleotide exchange assay (SOS1 mediated, HTRF); assay type: biochemical; conditions: 1 hr pre-incubation at RT, read-out: IC50 (inhibition of KRas G12C)
T1 construct: Kras (aa 2-169), GST; purchased Reaction Biology Corporation (RBC)
T1 sequence (P01116 2-169 isoform P01116-2 G12C): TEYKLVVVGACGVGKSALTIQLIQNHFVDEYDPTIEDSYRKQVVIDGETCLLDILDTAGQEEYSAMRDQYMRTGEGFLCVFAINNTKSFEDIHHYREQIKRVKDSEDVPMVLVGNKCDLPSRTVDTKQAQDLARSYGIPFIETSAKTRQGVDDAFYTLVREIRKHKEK
Description: Exemplary compounds were tested for ability to inhibit KRas G12C.
KRAS target engagement (IC50 determination) was performed using a KRAS G12C nucleotide exchange assay (Reaction Biology Corporation). Specifically, compounds were tested against KRAS G12C in 10-point concentration IC50 mode with 3-fold serial dilution at a starting concentration of 10 μM. ARS1620 was used as a control. Compounds were pre-incubated with protein for 1 hr at RT. Parameters for the assay were:
In the method, Kras was mixed with a-GST Tb antibody (1.5× solution) and […] was delivered to reaction wells. Compounds were delivered using acoustic dispenser (Echo, Labcyte). Kras/aGST-Tb Ab/compound mixture was incubated for 1 hour at room temperature. A 3× solution of SOS1 and GTP* was prepared in reaction buffer. A […] aliquot of SOS1/GTP* solution was added to reaction well to initiate the exchange reaction. No—SOS1 reaction or max compound concentration was used as blank. IC50 determination was performed using a Sigmoidal dose response (variable slope) equation.

SMILES | GI50 (HeLa cells; Homo sapiens, 72 h) [nM] | GI50 (HEK293 cells; Homo sapiens, 72 h) [nM] | IC50 (KRAS G12C) [nM] | GI50 (HeLa cells) [nM] | GI50 (HEK293 cells) [nM]
CCc1cnn2c(NCc3ccc(OCCOCCOCCOCCOCCOCCOCCN(C)C/C=C/C(=O)N4CCN(c5nc(OC[C@@H]6CCCN6C)nc6c5CCN(c5cccc7cccc(Cl)c57)C6)C[C@@H]4CC#N)nc3)cc(N3CCCC[C@H]3CCO)nc12 [Compound I-94, 2-((S)-4-(7-(8-chloronaphthalen-1-yl)-2-(((S)-1-methylpyrrolidin-2-yl)methoxy) -5,6,7,8-tetrahydropyrido[3,4-d]pyrimidin-4-yl)-1-((E)-1-((5-(((3-ethyl-5-((S)-2-(2-hydroxyethyl)piperidin-1-yl)pyrazolo[1,5-a]pyrimidin-7-yl)amino)methyl)pyridin-2-yl)oxy)-21-methyl-3,6,9,12,15,18-hexaoxa-21-azapentacos-23-en-25-oyl)piperazin-2-yl)acetonitrile] | 500 to 1500 | 1500 to 5000 | < 100 |  | 
CCc1cnn2c(NCc3ccc(OCCOCCOCCOCCOCCOCCOCCOC/C=C/C(=O)N4CCN(c5nc(OC[C@@H]6CCCN6C)nc6c5CCN(c5cccc7cccc(Cl)c57)C6)C[C@@H]4CC#N)nc3)cc(N3CCCC[C@H]3CCO)nc12 [Compound I-95] | > 5000 | 1500 to 5000 | 1000 to 5000 |  | 
C=C(F)C(=O)N1CCN(c2nc(OC[C@@H]3CCCN3CCCOCCOCCOCCOCCN(C)C(=O)N3N=C(c4cc(F)ccc4F)S[C@@]3(CCCN)c3ccccc3)nc3c2CCN(c2cccc4cccc(Cl)c24)C3)C[C@@H]1CC#N [Compound I-98, 2-(3-aminopropyl)-N-[2-[2-[2-[2-[3-[(2S)-2-[[7-(8-chloro-1-naphthyl)-4-[(3S)-3-(cyanomethyl)-4-(2-fluoroprop-2-enoyl)piperazin-1-yl]-6,8-dihydro-5H-pyrido[3,4-d]pyrimidin-2-yl]oxymethyl]pyrrolidin-1-yl]propoxy]ethoxy]ethoxy]ethoxy]ethyl]-5-(2,5-difluorophenyl)-N-methyl-2-phenyl-1,3,4-thiadiazole-3-carboxamide] | 500 to 1500 | 1500 to 5000 | < 100 |  | 
C=C(F)C(=O)N1CCN(c2nc(OC[C@@H]3CCCN3CCCOCCOCCN(C)C(=O)N3N=C(c4cc(F)ccc4F)SC3(CCCN)c3ccccc3)nc3c2CCN(c2cccc4cccc(Cl)c24)C3)C[C@@H]1CC#N (stereo partly drawn) [Compound I-99, 2-(3-aminopropyl)-N-[2-[2-[3-[(2S)-2-[[7-(8-chloro-1-naphthyl)-4-[(3S)-3-(cyanomethyl)-4-(2-fluoroprop-2-enoyl)piperazin-1-yl]-6,8-dihydro-5H-pyrido[3,4-d]pyrimidin-2-yl]oxymethyl]pyrrolidin-1-yl]propoxy]ethoxy]ethyl]-5-(2,5-difluorophenyl)-N-methyl-2-phenyl-1,3,4-thiadiazole-3-carboxamide] | 500 to 1500 | 1500 to 5000 | < 100 |  | 
C=C(F)C(=O)N1CCN(c2nc(OC[C@@H]3CCCN3CCCOCCOCCOCCOCCOCCOCCN(C)C(=O)N3N=C(c4cc(F)ccc4F)S[C@@]3(CCCN)c3ccccc3)nc3c2CCN(c2cccc4cccc(Cl)c24)C3)C[C@@H]1CC#N [Compound I-100, (2S)-2-(3-aminopropyl)-N-[2-[22[2-[2-[2-[2-[3-[(2S)-2-[[7-(8-chloro-1-naphthyl)-4-[(3S)-3-(cyanomethyl)-4-(2-fluoroprop-2-enoyl)piperazin-1-yl]-6,8-dihydro-5H-pyrido[3,4-d]pyrimidin-2-yl]oxymethyl]pyrrolidin-1-yl]propoxy]ethoxy]ethoxy]ethoxy]ethoxy]ethoxy]ethyl]-5-(2,5-difluorophenyl)-N-methyl-2-phenyl-1,3,4-thiadiazole-3-carboxamide] | 1500 to 5000 | > 5000 | < 100 |  | 
C=C(F)C(=O)N1CCN(c2nc(OC[C@@H]3CCCN3CCCOCCOCCOCCOCCOCCOCCOCCOCCN(C)C(=O)N3N=C(c4cc(F)ccc4F)S[C@@]3(CCCN)c3ccccc3)nc3c2CCN(c2cccc4cccc(Cl)c24)C3)C[C@@H]1CC#N [Compound I-101] |  |  | < 100 | 1500 to 5000 | 1500 to 5000
C=C(F)C(=O)N1CCN(c2nc(OC[C@@H]3CCCN3CCCN3CCN(CCNC(=O)c4ccc(Nc5ncc6c(n5)N(C5CCCC5)[C@H](CC)C(=O)N6C)c(OC)c4)CC3)nc3c2CCN(c2cccc4cccc(Cl)c24)C3)C[C@@H]1CC#N [Compound I-106, N-[2-[4-[3-[(2S)-2-[[7-(8-chloro-1-naphthyl)-4-[(3S)-3-(cyanomethyl)-4-(2-fluoroprop-2-enoyl)piperazin-1-yl]-6,8-dihydro-5H-pyrido[3,4-d]pyrimidin-2-yl]oxymethyl]pyrrolidin-1-yl]propyl]piperazin-1-yl]ethyl]-4-[[(7R)-8-cyclopentyl-7-ethyl-5-methyl-6-oxo-7H-pteridin-2-yl]amino]-3-methoxy-benzamide] | 500 to 1500 | 500 to 1500 | < 100 |  | 
CC[C@@H]1C(=O)N(C)c2cnc(Nc3ccc(C(=O)NCCOCCOCCN(C)C/C=C/C(=O)N4CCN(c5nc(OC[C@@H]6CCCN6C)nc6c5CCN(c5cccc7cccc(Cl)c57)C6)C[C@@H]4CC#N)cc3OC)nc2N1C1CCCC1 [Compound I-107, N-[2-[2-[2-[[(E)-4-[(2S)-4-[7-(8-chloro-1-naphthyl)-2-[[(2S)-1-methylpyrrolidin-2-yl]methoxy]-6,8-dihydro-SH-pyrido[3,4-d]pyrimidin-4-yl]-2-(cyanomethyl)piperazin-1-yl]-4-oxo-but-2-enyl]-methyl-amino]ethoxy]ethoxy]ethyl]-4-[[(7R)-8-cyclopentyl-7-ethyl-5-methyl-6-oxo-7H-pteridin-2-yl]amino]-3-methoxy-benzamide] | < 500 | < 500 | < 100 |  | 
CC[C@@H]1C(=O)N(C)c2cnc(Nc3ccc(C(=O)NCCOCCOCCOCCOCCOCCOCCN(C)C/C=C/C(=O)N4CCN(c5nc(OC[C@@H]6CCCN6C)nc6c5CCN(c5cccc7cccc(Cl)c57)C6)C[C@@H]4CC#N)cc3OC)nc2N1C1CCCC1 [Compound I-109, N-[2-[2-[2-[2-[2-[2-[2-[[(E)-4-1[(2S)-4-1[7-(8-chloro-1-naphthyl)-2-[[(2S)-1-methylpyrrolidin-2-yl]methoxy]-6,8-dihydro-5Hpyrido1[3,4-d]pyrimidin-4-yl]-2-(cyanomethyl)piperazin-1-yl]-4-oxo-but-2-enyl]-methylamino]ethoxy]ethoxy]ethoxy]ethoxy]ethoxy]ethoxy]ethyl]-4-[[(7R)-8-cyclopentyl-7-ethyl-5-methyl-6-oxo-7H-pteridin-2-yl]amino]-3-methoxy-benzamide] | 500 to 1500 | 1500 to 5000 | < 100 |  | 
CC[C@@H]1C(=O)N(C)c2cnc(Nc3ccc(C(=O)NCCOCCOC4CCN(C/C=C/C(=O)N5CCN(c6nc(OC[C@@H]7CCCN7C)nc7c6CCN(c6cccc8cccc(Cl)c68)C7)C[C@@H]5CC#N)CC4)cc3OC)nc2N1C1CCCC1 [Compound I-110, N-[2-[2-[[1-[(E)-4-[(2S)-4-[7-(8-chloro-1-naphthyl)-2-[[(2S)-1-methylpyrrolidin-2-yl]methoxy]-6,8-dihydro-5H-pyrido[3,4-d]pyrimidin-4-yl]-2-(cyanomethyl)piperazin-1-yl]-4-oxo-but-2-enyl]-4-piperidyl]oxy]ethoxy]ethyl]-4-[[(7R)-8-cyclopentyl-7-ethyl-5-methyl-6-oxo-7H-pteridin-2-yl]amino]-3-methoxy-benzamide] | 500 to 1500 | 500 to 1500 | < 100 |  | 

Reference: patent US20250032623A1, “HETEROBIFUNCTIONAL COMPOUNDS AND THEIR USE IN TREATING DISEASE” (HALDA THERAPEUTICS OPCO, INC., priority 2021, published 2025)
